Assay results: US20080292723A1, “Bioactive acid agrichemical compositions and use thereof” (priority 2007, published 2008)

Key:
[1] = system: E. amylovora 153N; assay: Fire blight on crabapples; format: in vivo, Snow Drift crabapple trees; conditions: for canker, in words / shoot blight incidence, in words: day 63
Method: A study of the bioefficacy of the various agrichemical compositions, including bioactive acid solutions and blends thereof with an antibiotic agrichemical, were evaluated to assess their bioefficacy against fire blight on crabapples. The study was conducted on 5 year old Snow Drift crabapple trees, with each of the compositions being applied to ten trees in two-subplots of five trees, four different times: at 100% bloom-day 1, a second application was made on day 4, a third on day 11 and a final treatment on day 19. The trees were inoculated with E. amylovora […] at a concentration of 4×10^6 cells per milliliter on day 1, following drying of the treatment, with the inoculation being repeated on day 13. Evaluation for fire blight was completed on 100 blossoms for each of the subplots on day 12, day 19 and day 27. Additionally, the incidence of shoot infection and the length of […] evaluated on day 63. The test compositions were prepared by forming solutions of the bioactive agents. Two different dilutions of the MI2 bioactive were evaluated, the first employing 94.46 ml/gallon (25 ml/l) of water (5 ppm of each metal) and the second 188.9 ml/gallon (50 ml/l) of water (10 ppm of each metal). […] Finally, copper hydroxide was diluted at a rate of 1 lb/gallon (119.8 g/l). Each of the compositions and blends were spray applied at a rate of 50 gallons (189.3 l) pre acre. The results are presented as the mean of the counts.

[2] = system: Saccharomycetes Cerevisiae (Fleishmann's Bakers yeast); assay: Yeast growth inhibition by turbidity; format: cell-based; conditions: Table 12, surfactant ~0.05 wt %, neat additive, Metal 0 ppm
Method: Saccharomycetes Cerevisiae was selected as a test organism as it is generally accepted in the industry as an indicator or surrogate organism for a wide variety of fungi. In each of these experiments, the same general procedure was followed unless otherwise indicated.
Experimental Detail: A growth medium was prepared by adding 10 grams of nutrient medium (Difco Sabouraud dextrose broth from BD of Franklin Lakes, N.J., USA) to 300 ml of distilled water. Fleishmann's Bakers yeast was then added to the growth medium while mixing using a magnetic stirrer until a uniform dispersion was obtained having an initial turbidity of between about 50 and 100 NTU as measured using a HF Instruments DRT 100B Turbidity Meter. […] The system/component to be evaluated was then added to the vial and intimately shaken to ensure a good, substantially homogeneous mixture. The turbidity of each mixture was then determined and the vial transferred to an incubator at 30° C. Each vial was periodically removed from the incubator and the mixture in the vials assessed for turbidity: the specific timing for such evaluation was as set forth in the discussion of the experiments and the accompanying tables. […]
In the tables below, the results are presented as the actual turbidity readings (NTU) with a sub-table presenting the change or delta in NTU values. […]

Structure (SMILES) | canker, in words [1] | shoot blight incidence, in words [1] | T0 (turbidity) [2] | Shoot Incidence ([1]; Day 63, rate 5 lbs/a (2.27 kg/a), mean of counts)
[H]/N=C(/N)N[C@H]1[C@H](O)[C@@H](O)[C@H](O[C@@H]2O[C@@H](C)[C@](O)(C=O)[C@H]2O[C@@H]2O[C@@H](CO)[C@H](O)[C@@H](O)[C@@H]2NC)[C@@H](N/C(N)=N\[H])[C@@H]1O [streptomycin] | appeared to prevent canker | greatly reduced | – | –
CCCCCCCCCCCCOS(=O)(=O)[O-].[Na+] | – | – | 48 | –
[Cu+2].[OH-].[OH-] [copper hydroxide] | appeared to prevent canker | greatly reduced | – | 1.0
